Tests used:
Type in all cases: in vivo
Spodoptera litura = assay: Pesticidal test against Spodoptera litura (cabbage leaf dip); conditions: foliar, 144 h, 2-stage larvae, examined after 6 days, 25° C., read-out: pesticidal rate; for pest or weed control at 1 ppm: concentration 1 ppm
Method in brief: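 Cabbage leaf pieces dipped 30 seconds in compound solution at a predetermined concentration and air-dried, then offered to second-stage larvae, five per group in two replicates. Held at 25° C. Living and dead larvae counted after 6 days.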

Plutella xylostella = assay: Pesticidal test against Plutella xylostella (cabbage leaf dip); conditions: foliar, 144 h, 2-stage larvae, examined after 6 days, 25° C., read-out: pesticidal rate; for pest or weed control at 1 ppm: concentration 1 ppm
Method in brief: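 Second-stage larvae (5 per group, two replicates) were released onto air-dried cabbage leaf discs that had been immersed for 30 seconds in compound solution at a set concentration. Mortality was scored after 6 days at 25° C.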

Adoxophyes honmai = assay: Pesticidal test against Adoxophyes honmai (artificial feed dip); conditions: 144 h, 2-stage larvae, examined after 6 days, 25° C., read-out: pesticidal rate; for pest or weed control at 1 ppm: concentration 1 ppm; for pest or weed control at 10 ppm: concentration 10 ppm
Method: (§1) Pesticidal Test against Adoxophyes honmai A thinly sliced artificial feed was immersed for 30 seconds in a chemical solution in which a test compound had been prepared at a predetermined concentration, and air-dried, and then put into a 7 cm polyethylene cup having a filter paper laid on the bottom thereof, and 2-stage larvae of Adoxophyes honmai were released. They were left to stand in a thermostatic chamber at 25° C., and the numbers of the living pests and the dead pests were examined after 6 days. The test was carried out with five larvae per group in two replicates. Further, the above compound (A) was used as a comparative compound.

Choristoneura magnanima = assay: Pesticidal test against Choristoneura magnanima (artificial feed dip); conditions: 144 h, 2-stage larvae, examined after 6 days, 25° C., read-out: pesticidal rate; for pest or weed control at 1 ppm: concentration 1 ppm; for pest or weed control at 10 ppm: concentration 10 ppm
Method: as §1, with “Choristoneura magnanima” for “Adoxophyes honmai”

Helicoverpa armigera = assay: Pesticidal test against Helicoverpa armigera (cabbage leaf disk dip); conditions: foliar, 72 h, 2-stage larvae, examined after 3 days, 25° C., read-out: pesticidal rate; for pest or weed control at 1 ppm: concentration 1 ppm
Method: as §1, with “Helicoverpa armigera” for “Adoxophyes honmai”, “cabbage leaf disk” for “thinly sliced artificial feed”, “air-dried. The leaf disk was” for “air-dried, and then”, “6-hole plastic” for “7 cm polyethylene”, “released with one insect being released per hole.” for “released.”, “3” for “6”

Laodelphax striatellus = assay: Pesticidal test against Laodelphax striatellus (rice seedling spray); conditions: 144 h, concentration 100 ppm, 3-stage larvae, examined after 6 days, 25° C., read-out: pesticidal rate
Method in brief: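 Rice seedlings sprayed with 2.5 ml acetone solution of compound at a predetermined concentration, air-dried, then infested with third-stage Laodelphax striatellus larvae in capped water-containing tubes at 25 °C. Living and dead insects counted after 6 days; ten larvae per group, two replicates.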

Musca domestica = assay: Pesticidal test against Musca domestica (petri dish dry film); conditions: 24 h, concentration 100 ppm, female adults, examined after 1 day, 25° C., read-out: pesticidal rate
Method: Pesticidal Test against Musca domestica
1 ml of an acetone solution in which a test compound had been prepared at a predetermined concentration was added dropwise to a petri dish having a diameter of 9 cm, and air-dried, and then the female adults of Musca domestica were released and the petri dish was capped. They were left to stand in a thermostatic chamber at 25° C., and the numbers of the living pests and the dead pests were examined after 1 day. The test was carried out with five larvae per group in two replicates.

O=C(Nc1c(I)cc(C(F)(C(F)(F)F)C(F)(F)C(F)(F)F)cc1I)c1cccc(NC(=O)c2c(F)cccc2F)c1 (stereo not drawn) [6-80]
pest or weed control at 1 ppm (Spodoptera litura): ≥ 70%
pest or weed control at 1 ppm (Plutella xylostella): ≥ 70%
pest or weed control at 1 ppm (Adoxophyes honmai): ≥ 70%
pest or weed control at 1 ppm (Choristoneura magnanima): ≥ 70%
pest or weed control at 1 ppm (Helicoverpa armigera): ≥ 70%
pest or weed control at 100 ppm (Laodelphax striatellus): ≥ 70%

O=C(Nc1c(I)cc(C(F)(C(F)(F)F)C(F)(F)C(F)(F)F)cc1I)c1cccc(NC(=O)c2cccnc2Cl)c1 (stereo not drawn) [6-90]
pest or weed control at 1 ppm (Spodoptera litura): ≥ 70%
pest or weed control at 1 ppm (Plutella xylostella): ≥ 70%
pest or weed control at 1 ppm (Adoxophyes honmai): ≥ 70%
pest or weed control at 1 ppm (Choristoneura magnanima): ≥ 70%
pest or weed control at 1 ppm (Helicoverpa armigera): ≥ 70%
pest or weed control at 100 ppm (Laodelphax striatellus): ≥ 70%

O=C(Nc1cccc(C(=O)Nc2c(Br)cc(C(F)(C(F)(F)F)C(F)(F)F)cc2C(F)(F)F)c1)c1ccc(F)cc1 [6-271]
pest or weed control at 1 ppm (Spodoptera litura): ≥ 70%
pest or weed control at 1 ppm (Plutella xylostella): ≥ 70%
pest or weed control at 10 ppm (Adoxophyes honmai): ≥ 70%
pest or weed control at 1 ppm (Choristoneura magnanima): ≥ 70%
pest or weed control at 1 ppm (Helicoverpa armigera): ≥ 70%
pest or weed control at 100 ppm (Laodelphax striatellus): ≥ 70%

O=C(Nc1cccc(C(=O)Nc2c(Br)cc(C(F)(C(F)(F)F)C(F)(F)C(F)(F)F)cc2C(F)(F)F)c1)c1ccc(F)cc1 (stereo not drawn) [6-349]
pest or weed control at 1 ppm (Spodoptera litura): ≥ 70%
pest or weed control at 1 ppm (Plutella xylostella): ≥ 70%
pest or weed control at 1 ppm (Adoxophyes honmai): ≥ 70%
pest or weed control at 1 ppm (Choristoneura magnanima): ≥ 70%
pest or weed control at 1 ppm (Helicoverpa armigera): ≥ 70%

O=C(Nc1c(I)cc(C(F)(C(F)(F)F)C(F)(F)F)cc1C(F)(F)F)c1cccc(NC(=O)c2c(F)cccc2F)c1 [6-446]
pest or weed control at 1 ppm (Spodoptera litura): ≥ 70%
pest or weed control at 1 ppm (Plutella xylostella): ≥ 70%
pest or weed control at 1 ppm (Adoxophyes honmai): ≥ 70%
pest or weed control at 10 ppm (Choristoneura magnanima): ≥ 70%
pest or weed control at 1 ppm (Helicoverpa armigera): ≥ 70%
pest or weed control at 100 ppm (Laodelphax striatellus): ≥ 70%

O=C(Nc1cccc(C(=O)Nc2c(Br)cc(C(F)(C(F)(F)F)C(F)(F)F)cc2Br)c1F)c1ccccc1 [6-1104]
pest or weed control at 1 ppm (Spodoptera litura): ≥ 70%
pest or weed control at 1 ppm (Plutella xylostella): ≥ 70%
pest or weed control at 10 ppm (Adoxophyes honmai): ≥ 70%
pest or weed control at 1 ppm (Choristoneura magnanima): ≥ 70%
pest or weed control at 1 ppm (Helicoverpa armigera): ≥ 70%
pest or weed control at 100 ppm (Laodelphax striatellus): ≥ 70%

O=C(Nc1cccc(C(=O)Nc2c(Br)cc(C(F)(C(F)(F)F)C(F)(F)C(F)(F)F)cc2Br)c1F)c1ccccc1 (stereo not drawn) [6-1182]
pest or weed control at 1 ppm (Spodoptera litura): ≥ 70%
pest or weed control at 1 ppm (Plutella xylostella): ≥ 70%
pest or weed control at 1 ppm (Adoxophyes honmai): ≥ 70%
pest or weed control at 1 ppm (Choristoneura magnanima): ≥ 70%
pest or weed control at 100 ppm (Laodelphax striatellus): ≥ 70%

O=C(Nc1cccc(C(=O)Nc2c(I)cc(C(F)(C(F)(F)F)C(F)(F)F)cc2I)c1F)c1ccc(F)cc1 [6-1263]
pest or weed control at 1 ppm (Spodoptera litura): ≥ 70%
pest or weed control at 1 ppm (Plutella xylostella): ≥ 70%
pest or weed control at 1 ppm (Adoxophyes honmai): ≥ 70%
pest or weed control at 1 ppm (Choristoneura magnanima): ≥ 70%
pest or weed control at 1 ppm (Helicoverpa armigera): ≥ 70%
pest or weed control at 100 ppm (Laodelphax striatellus): ≥ 70%

O=C(Nc1cccc(C(=O)Nc2c(Br)cc(C(F)(C(F)(F)F)C(F)(F)F)cc2C(F)(F)F)c1F)c1ccccc1 [6-1574]
pest or weed control at 1 ppm (Spodoptera litura): ≥ 70%
pest or weed control at 1 ppm (Plutella xylostella): ≥ 70%
pest or weed control at 1 ppm (Adoxophyes honmai): ≥ 70%
pest or weed control at 1 ppm (Choristoneura magnanima): ≥ 70%
pest or weed control at 1 ppm (Helicoverpa armigera): ≥ 70%
pest or weed control at 100 ppm (Laodelphax striatellus): ≥ 70%

O=C(Nc1cccc(C(=O)Nc2c(Br)cc(C(F)(C(F)(F)F)C(F)(F)C(F)(F)F)cc2C(F)(F)F)c1F)c1cccc(F)c1 (stereo not drawn) [6-1654]
pest or weed control at 1 ppm (Spodoptera litura): ≥ 70%
pest or weed control at 1 ppm (Plutella xylostella): ≥ 70%
pest or weed control at 1 ppm (Adoxophyes honmai): ≥ 70%
pest or weed control at 1 ppm (Choristoneura magnanima): ≥ 70%
pest or weed control at 1 ppm (Helicoverpa armigera): ≥ 70%
pest or weed control at 100 ppm (Laodelphax striatellus): ≥ 70%

O=C(Nc1cccc(C(=O)Nc2c(Br)cc(C(F)(C(F)(F)F)C(F)(F)C(F)(F)F)cc2C(F)(F)F)c1F)c1ccc(F)cc1 (stereo not drawn) [6-1655]
pest or weed control at 1 ppm (Spodoptera litura): ≥ 70%
pest or weed control at 1 ppm (Plutella xylostella): ≥ 70%
pest or weed control at 1 ppm (Adoxophyes honmai): ≥ 70%
pest or weed control at 1 ppm (Choristoneura magnanima): ≥ 70%
pest or weed control at 1 ppm (Helicoverpa armigera): ≥ 70%
pest or weed control at 100 ppm (Laodelphax striatellus): ≥ 70%

N#Cc1ccc(C(=O)Nc2cccc(C(=O)Nc3c(Br)cc(C(F)(C(F)(F)F)C(F)(F)C(F)(F)F)cc3C(F)(F)F)c2F)cc1 (stereo not drawn) [6-1673]
pest or weed control at 1 ppm (Spodoptera litura): ≥ 70%
pest or weed control at 1 ppm (Plutella xylostella): ≥ 70%
pest or weed control at 1 ppm (Choristoneura magnanima): ≥ 70%
pest or weed control at 1 ppm (Helicoverpa armigera): ≥ 70%
pest or weed control at 100 ppm (Laodelphax striatellus): ≥ 70%
pest or weed control at 100 ppm (Musca domestica): ≥ 70%

O=C(Nc1c(Br)cc(C(F)(C(F)(F)F)C(F)(F)C(F)(F)F)cc1C(F)(F)F)c1cccc(NC(=O)c2c(F)cccc2F)c1F (stereo not drawn) [6-1674]
pest or weed control at 1 ppm (Spodoptera litura): ≥ 70%
pest or weed control at 1 ppm (Plutella xylostella): ≥ 70%
pest or weed control at 1 ppm (Adoxophyes honmai): ≥ 70%
pest or weed control at 1 ppm (Choristoneura magnanima): ≥ 70%
pest or weed control at 1 ppm (Helicoverpa armigera): ≥ 70%
pest or weed control at 100 ppm (Laodelphax striatellus): ≥ 70%

N#Cc1ccc(C(=O)Nc2cccc(C(=O)Nc3c(I)cc(C(F)(C(F)(F)F)C(F)(F)C(F)(F)F)cc3C(F)(F)F)c2F)cc1 (stereo not drawn) [6-1829]
pest or weed control at 1 ppm (Spodoptera litura): ≥ 70%
pest or weed control at 1 ppm (Plutella xylostella): ≥ 70%
pest or weed control at 1 ppm (Choristoneura magnanima): ≥ 70%
pest or weed control at 1 ppm (Helicoverpa armigera): ≥ 70%
pest or weed control at 100 ppm (Laodelphax striatellus): ≥ 70%
pest or weed control at 100 ppm (Musca domestica): ≥ 70%

CN(C(=O)c1cccnc1Cl)c1cccc(C(=O)Nc2c(I)cc(C(F)(C(F)(F)F)C(F)(F)C(F)(F)F)cc2I)c1 (stereo not drawn) [7-90]
pest or weed control at 1 ppm (Spodoptera litura): ≥ 70%
pest or weed control at 1 ppm (Plutella xylostella): ≥ 70%
pest or weed control at 1 ppm (Choristoneura magnanima): ≥ 70%
pest or weed control at 1 ppm (Helicoverpa armigera): ≥ 70%
pest or weed control at 100 ppm (Laodelphax striatellus): ≥ 70%
pest or weed control at 100 ppm (Musca domestica): ≥ 70%

CN(C(=O)c1ccc(C#N)cc1)c1cccc(C(=O)Nc2c(I)cc(C(F)(C(F)(F)F)C(F)(F)C(F)(F)F)cc2C(F)(F)F)c1 (stereo not drawn) [7-523]
pest or weed control at 1 ppm (Spodoptera litura): ≥ 70%
pest or weed control at 1 ppm (Plutella xylostella): ≥ 70%
pest or weed control at 10 ppm (Adoxophyes honmai): ≥ 70%
pest or weed control at 1 ppm (Choristoneura magnanima): ≥ 70%
pest or weed control at 1 ppm (Helicoverpa armigera): ≥ 70%

CN(C(=O)c1cccc(C#N)c1)c1cccc(C(=O)Nc2c(Br)cc(C(F)(C(F)(F)F)C(F)(F)F)cc2Br)c1F [7-1124]
pest or weed control at 1 ppm (Spodoptera litura): ≥ 70%
pest or weed control at 1 ppm (Plutella xylostella): ≥ 70%
pest or weed control at 10 ppm (Adoxophyes honmai): ≥ 70%
pest or weed control at 1 ppm (Choristoneura magnanima): ≥ 70%
pest or weed control at 100 ppm (Laodelphax striatellus): ≥ 70%

CN(C(=O)c1ccccc1)c1cccc(C(=O)Nc2c(I)cc(C(F)(C(F)(F)F)C(F)(F)F)cc2I)c1F [7-1260]
pest or weed control at 1 ppm (Spodoptera litura): ≥ 70%
pest or weed control at 1 ppm (Plutella xylostella): ≥ 70%
pest or weed control at 10 ppm (Adoxophyes honmai): ≥ 70%
pest or weed control at 1 ppm (Choristoneura magnanima): ≥ 70%
pest or weed control at 100 ppm (Laodelphax striatellus): ≥ 70%

CN(C(=O)c1ccc(F)cc1)c1cccc(C(=O)Nc2c(I)cc(C(F)(C(F)(F)F)C(F)(F)F)cc2I)c1F [7-1263]
pest or weed control at 1 ppm (Spodoptera litura): ≥ 70%
pest or weed control at 1 ppm (Plutella xylostella): ≥ 70%
pest or weed control at 10 ppm (Adoxophyes honmai): ≥ 70%
pest or weed control at 1 ppm (Choristoneura magnanima): ≥ 70%
pest or weed control at 1 ppm (Helicoverpa armigera): ≥ 70%
pest or weed control at 100 ppm (Laodelphax striatellus): ≥ 70%

CN(C(=O)c1ccc(C#N)cc1)c1cccc(C(=O)Nc2c(I)cc(C(F)(C(F)(F)F)C(F)(F)C(F)(F)F)cc2I)c1F (stereo not drawn) [7-1359]
pest or weed control at 1 ppm (Spodoptera litura): ≥ 70%
pest or weed control at 1 ppm (Plutella xylostella): ≥ 70%
pest or weed control at 1 ppm (Choristoneura magnanima): ≥ 70%
pest or weed control at 1 ppm (Helicoverpa armigera): ≥ 70%
pest or weed control at 100 ppm (Laodelphax striatellus): ≥ 70%
pest or weed control at 100 ppm (Musca domestica): ≥ 70%

CN(C(=O)c1ccc(C#N)cc1)c1cccc(C(=O)Nc2c(I)cc(C(F)(C(F)(F)F)C(F)(F)C(F)(F)F)cc2C(F)(F)F)c1F (stereo not drawn) [7-1829]
pest or weed control at 1 ppm (Spodoptera litura): ≥ 70%
pest or weed control at 1 ppm (Plutella xylostella): ≥ 70%
pest or weed control at 1 ppm (Choristoneura magnanima): ≥ 70%
pest or weed control at 1 ppm (Helicoverpa armigera): ≥ 70%
pest or weed control at 100 ppm (Laodelphax striatellus): ≥ 70%
pest or weed control at 100 ppm (Musca domestica): ≥ 70%

COc1cc(C(F)(C(F)(F)F)C(F)(F)F)cc(C)c1NC(=O)c1cccc(N(C)C(=O)c2ccccc2)c1 [compound (A), reference compound]
pest or weed control at 10 ppm (Spodoptera litura; concentration 10 ppm): ≤ 50%
pest or weed control at 10 ppm (Plutella xylostella; concentration 10 ppm): ≤ 50%
pest or weed control at 10 ppm (Adoxophyes honmai): ≤ 50%
pest or weed control at 10 ppm (Choristoneura magnanima): ≤ 50%
pest or weed control at 10 ppm (Helicoverpa armigera; concentration 10 ppm): ≤ 50%
